Data as given in patent US8258114B2, “Modulation of glucose-6-phosphatase translocase expression” (Isis Pharmaceuticals, Inc., priority 2004, dated 2012).
Like-named read-outs stand apart in the source and are kept apart here.

What was measured:
[1] = tested on: glucose-6-phosphatase translocase mRNA; assay: Target reduction in liver: rat dose-response study (Table 12); format: in vivo; details: Sprague-Dawley rats; for % Inhibition, target reduction in liver: three weeks
Experimental: (§1) Each treatment group was comprised of 4 animals.
At the end of the treatment period, animals were sacrificed and target reduction in liver was measured by real-time PCR as described in other examples herein. Results are shown in Table 12 as the average percent reduction in glucose-6-phosphatase translocase levels as compared to saline treated control.

[2] = rat, in vivo
Experimental: (§4) Male Zucker fa/fa rats, about 17 to 18 weeks of age, purchased from Charles River Laboratories (Wilmington, Mass.), are maintained on a normal rodent diet. Animals are placed into treatment groups of 8 animals each. […] Another treatment group received the food-administered daily doses of 3 mg/kg of rosiglitazone alone. Saline-injected animals served as a control treatment group.
The liver transaminases, ALT and AST, were measured throughout the study.

[3] = Plasma glucose levels of ZDF rats, alone or in combination with rosiglitazone (Table 16); format: in vivo, rat; details: alone or with Rosi
Experimental: (§2) Saline-injected animals served as a control treatment group.
(§3) Plasma glucose levels were evaluated at the beginning of the study (Wk 0), during the first week of treatment (Wk 1), during the third week of treatment (Wk 3), and during the fifth week of treatment (Wk 5).

aged Zucker fa/fa rats [4] = assay: as above; format: in vivo, rat
Experimental: as §2, §3

[5] = Plasma lipids (cholesterol, triglycerides, free fatty acids) in ZDF rats (Table 21); format: in vivo, rat
Experimental: as §2
To further assess the physiological effects resulting from inhibition of target mRNA with antisense oligonucleotide alone or in combination with rosiglitazone, the rats were evaluated throughout the treatment period for plasma free fatty acids, plasma cholesterol, and plasma triglyceride levels. Free fatty acids, triglycerides and cholesterol were measured by routine clinical analyzer instruments (e.g. Olympus Clinical Analyzer, Melville, N.Y.). Glucose levels were measured using a glucose analyzer, for example a YSI glucose analyzer (YSI Scientific, Yellow Springs, Ohio).

[6] = Plasma glucose, cholesterol and triglycerides in normal Sprague-Dawley rats (Table 14); format: in vivo, rat; set-up: plasma GLUCOSE WK 0 / plasma GLUCOSE WK 3: unit not given beside the values
Experimental: as §1
To further assess the physiological effects resulting from inhibition of target mRNA, the rats were evaluated at the beginning (Wk 0) and at the end (Wk 3) of the treatment period for plasma glucose, plasma cholesterol, and plasma triglyceride levels. Triglycerides and cholesterol were measured by routine clinical analyzer instruments (e.g. Olympus Clinical Analyzer, Melville, N.Y.). Glucose levels were measured using a glucose analyzer, for example a YSI glucose analyzer (YSI Scientific, Yellow Springs, Ohio). Results are presented in Table 14 as the average level of plasma glucose, plasma cholesterol (CHOL), or plasma triglycerides (TRIG) measured per treatment group.

[7] = rat, in vivo; remark: listed apart in the source
Experimental: Male Zucker fa/fa rats, about 17 to 18 weeks of age, purchased from Charles River Laboratories (Wilmington, Mass.), are maintained on a normal rodent diet. Animals are placed into treatment groups of 8 animals each. One treatment group was dosed subcutaneously twice weekly with 12.5 mg/kg of ISIS 366228 (SEQ ID NO: 203). Another treatment group was dosed twice weekly with 25 mg/kg of ISIS 366228. Other treatment groups were dosed with 12.5 mg/kg or 25 mg/kg ISIS 366228 twice weekly in combination with daily 3 mg/kg doses of rosiglitazone (Rosi) administered in powdered food. Another treatment group received the food-administered daily doses of 3 mg/kg of rosiglitazone alone. Saline-injected animals served as a control treatment group.
Tissue weights were also determined at the end of the study.

[8] = rat, in vivo; remark: listed apart in the source
Experimental: For three weeks, male Sprague-Dawley rats were injected twice-weekly with doses of 12.5 mg/kg, 25 mg/kg, or 50 mg/kg of ISIS 145760, ISIS 359543, or ISIS 366228. Each treatment group was comprised of 4 animals. Animals which received twice weekly injections of saline served as controls.
Body weight was monitored throughout the study period. […] Tissue weights were also measured at the end of the study.

[9] = tested on: rat glucose-6-phosphatase translocase mRNA; assay: Reduction of glucose-6-phosphatase translocase mRNA in liver or kidney of ZDF rats (Table 15); format: in vivo; details: for % Inhibition of glucose-6-phosphatase translocase, Kidney / % Inhibition of glucose-6-phosphatase translocase, Liver: alone or with rosiglitazone 3 mg/kg daily
Experimental: Saline-injected animals served as a control treatment group. At the end of the treatment period, animals were sacrificed and target reduction in liver and kidney were measured by real-time PCR as described in other examples herein. […] For example, the following primer-probe set was designed to hybridize to rat glucose-6-phosphatase translocase sequences cited in Table 1: Forward primer: [NT] (incorporated herein as SEQ ID NO: 339) Reverse primer: [NT] (incorporated herein as SEQ ID NO: 340) PCR probe: […] (incorporated herein as SEQ ID NO: 341), where FAM is the fluorescent dye and TAMRA is the quencher dye.

[10] = rat, in vivo; remark: listed apart in the source
Experimental: as §4
Also monitored throughout the study was body composition. Baseline body composition was measured by MRI prior to the start of treatment (BL). Body composition was also measured during week 3 (Wk 3) and during week 5 (Wk 5) of treatment.

[11] = rat, in vivo; remark: listed apart in the source
aged Zucker fa/fa rats [12] = assay: Oral glucose tolerance test in ZDF rats (Table 17); format: in vivo, rat; details: alone or with Rosi
Experimental: as §2
To further evaluate the effects of ISIS 366228 alone or in combination with rosiglitazone, oral glucose tolerance tests were performed during the third week of treatment. To provide a baseline glucose level, fasted blood glucose levels were measured before the challenge. Glucose was administered by oral gavage via an 18 gauge gavage needle at a dose of 1 g/kg. Plasma glucose levels were measured for 15, 30, 60, 90, and 120 minutes post-challenge, using a glucose analyzer (for example, an Ascencia Glucometer Elite XL, Bayer, Tarrytown, N.Y.).

[13] = ISIS 366228 12.5 mg/kg twice weekly
[14] = ISIS 366228 25 mg/kg twice weekly

GTGCTTGGCGATGGTACTGA (chemistry not given here) [ISIS 366228]
% Inhibition, target reduction in liver ([1]; 12.5 mg/kg twice weekly): 69% | % Inhibition, target reduction in liver ([1]; 25 mg/kg twice weekly): 82% | % Inhibition, target reduction in liver ([1]; 50 mg/kg twice weekly): 90% | target mRNA levels in rat liver (in words) ([1]; 12.5 to 50 mg/kg): effective in reducing target mRNA levels in rat liver in a dose-dependent manner | liver transaminases ALT and AST (in words) [2]: reductions in levels of these indicators of liver function | Plasma glucose ([3]; ISIS 366228 12.5 mg/kg, Wk 0, saline 571): 570 mg/dL | Plasma glucose ([3]; ISIS 366228 12.5 mg/kg, Wk 1, saline 549): 549 mg/dL | Plasma glucose ([3]; ISIS 366228 12.5 mg/kg, Wk 3, saline 552): 547 mg/dL | Plasma glucose ([3]; ISIS 366228 12.5 mg/kg, Wk 5, saline 536): 532 mg/dL | Plasma glucose ([3]; ISIS 366228 25 mg/kg, Wk 0): 569 mg/dL | Plasma glucose ([3]; ISIS 366228 25 mg/kg, Wk 1): 542 mg/dL | Plasma glucose ([3]; ISIS 366228 25 mg/kg, Wk 3): 507 mg/dL | Plasma glucose ([3]; ISIS 366228 25 mg/kg, Wk 5): 488 mg/dL | plasma glucose over the course of the study (in words) (aged Zucker fa/fa rats [4]): caused reductions in plasma glucose | plasma cholesterol (CHOL) ([5]; Wk 0, ISIS 366228 12.5 mg/kg): 207 mg/dL | plasma triglycerides (TRIG) ([5]; Wk 0, ISIS 366228 12.5 mg/kg): 460 mg/dL | plasma cholesterol (CHOL) ([5]; Wk 0, ISIS 366228 25 mg/kg): 210 mg/dL | plasma triglycerides (TRIG) ([5]; Wk 0, ISIS 366228 25 mg/kg): 470 mg/dL | plasma cholesterol (CHOL) ([5]; Wk 1, ISIS 366228 12.5 mg/kg): 201 mg/dL | plasma triglycerides (TRIG) ([5]; Wk 1, ISIS 366228 12.5 mg/kg): 379 mg/dL | plasma cholesterol (CHOL) ([5]; Wk 1, ISIS 366228 25 mg/kg): 196 mg/dL | plasma triglycerides (TRIG) ([5]; Wk 1, ISIS 366228 25 mg/kg): 307 mg/dL | plasma cholesterol (CHOL) ([5]; Wk 3, ISIS 366228 12.5 mg/kg): 196 mg/dL | plasma triglycerides (TRIG) ([5]; Wk 3, ISIS 366228 12.5 mg/kg): 416 mg/dL | plasma cholesterol (CHOL) ([5]; Wk 3, ISIS 366228 25 mg/kg): 206 mg/dL | plasma triglycerides (TRIG) ([5]; Wk 3, ISIS 366228 25 mg/kg): 354 mg/dL | plasma cholesterol (CHOL) ([5]; Wk 5, ISIS 366228 12.5 mg/kg): 176 mg/dL | plasma triglycerides (TRIG) ([5]; Wk 5, ISIS 366228 12.5 mg/kg): 478 mg/dL | plasma cholesterol (CHOL) ([5]; Wk 5, ISIS 366228 25 mg/kg): 183 mg/dL | plasma triglycerides (TRIG) ([5]; Wk 5, ISIS 366228 25 mg/kg): 472 mg/dL | plasma cholesterol (in words) ([5]; compared with saline or rosiglitazone alone): prevented increases in plasma cholesterol | plasma cholesterol (CHOL) WK 3 ([6]; 12.5 mg/kg twice weekly, saline 58): 49 | plasma triglycerides (TRIG) WK 0 ([6]; 12.5 mg/kg twice weekly, saline 69): 54 | plasma cholesterol (CHOL) WK 0 ([6]; 12.5 mg/kg twice weekly, saline 74): 70 | plasma GLUCOSE WK 0 ([6]; 12.5 mg/kg twice weekly, saline 135): 147 | plasma GLUCOSE WK 3 ([6]; 12.5 mg/kg twice weekly, saline 139): 146 | plasma triglycerides (TRIG) WK 3 ([6]; 12.5 mg/kg twice weekly, saline 140): 84 | plasma GLUCOSE WK 0 ([6]; 25 mg/kg twice weekly): 148 | plasma GLUCOSE WK 3 ([6]; 25 mg/kg twice weekly): 149 | plasma cholesterol (CHOL) WK 0 ([6]; 25 mg/kg twice weekly): 93 | plasma cholesterol (CHOL) WK 3 ([6]; 25 mg/kg twice weekly): 70 | plasma triglycerides (TRIG) WK 0 ([6]; 25 mg/kg twice weekly): 56 | plasma triglycerides (TRIG) WK 3 ([6]; 25 mg/kg twice weekly): 76 | plasma GLUCOSE WK 0 ([6]; 50 mg/kg twice weekly): 137 | plasma GLUCOSE WK 3 ([6]; 50 mg/kg twice weekly): 139 | plasma cholesterol (CHOL) WK 0 ([6]; 50 mg/kg twice weekly): 76 | plasma cholesterol (CHOL) WK 3 ([6]; 50 mg/kg twice weekly): 54 | plasma triglycerides (TRIG) WK 0 ([6]; 50 mg/kg twice weekly): 65 | plasma triglycerides (TRIG) WK 3 ([6]; 50 mg/kg twice weekly): 64 | plasma triglycerides (in words) ([6]; 12.5 to 50 mg/kg, three weeks): prevented the increases in triglycerides observed in saline-treated animals | renal enlargement (in words) [7]: renal enlargement associated with human glycogen storage disease type 1B is not observed | Fat pad weight ([7]; 12.5 mg/kg): 7 grams | Fat pad weight ([7]; 25 mg/kg): 6 grams | Fat weight ([8]; 12.5 mg/kg): 1.6 grams | Fat weight ([8]; 25 mg/kg): 1.5 grams | Fat weight ([8]; 50 mg/kg): 1.1 grams | Kidney weight ([8]; 50 mg/kg): 3 grams | Liver weight ([8]; 50 mg/kg): 15 grams | Spleen weight ([8]; 50 mg/kg): 1.1 grams | glucose-6-phosphatase translocase levels in liver and kidney (in words) [9]: reduced glucose-6-phosphatase translocase levels in liver and kidney at both doses | % Inhibition of glucose-6-phosphatase translocase, Kidney [9, 13]: 35% | % Inhibition of glucose-6-phosphatase translocase, Liver [9, 13]: 40% | % Inhibition of glucose-6-phosphatase translocase, Kidney [9, 14]: 46% | % Inhibition of glucose-6-phosphatase translocase, Liver [9, 14]: 80% | body fat percentage (in words) [10]: did not cause marked increases in body fat percentage | body weight (in words) [11]: did not cause increased body weight | plasma glucose, OGTT (aged Zucker fa/fa rats [12]; week 3, ISIS 366228 12.5 mg/kg, 0 min (fasted)): 317 mg/dL | plasma glucose, OGTT (aged Zucker fa/fa rats [12]; week 3, ISIS 366228 12.5 mg/kg, 15 min): 418 mg/dL | plasma glucose, OGTT (aged Zucker fa/fa rats [12]; week 3, ISIS 366228 12.5 mg/kg, 30 min): 553 mg/dL | plasma glucose, OGTT (aged Zucker fa/fa rats [12]; week 3, ISIS 366228 12.5 mg/kg, 60 min): 485 mg/dL | plasma glucose, OGTT (aged Zucker fa/fa rats [12]; week 3, ISIS 366228 12.5 mg/kg, 90 min): 441 mg/dL | plasma glucose, OGTT (aged Zucker fa/fa rats [12]; week 3, ISIS 366228 12.5 mg/kg, 120 min): 444 mg/dL | plasma glucose, OGTT (aged Zucker fa/fa rats [12]; week 3, ISIS 366228 25 mg/kg, 0 min (fasted)): 303 mg/dL | plasma glucose, OGTT (aged Zucker fa/fa rats [12]; week 3, ISIS 366228 25 mg/kg, 15 min): 453 mg/dL | plasma glucose, OGTT (aged Zucker fa/fa rats [12]; week 3, ISIS 366228 25 mg/kg, 30 min): 540 mg/dL | plasma glucose, OGTT (aged Zucker fa/fa rats [12]; week 3, ISIS 366228 25 mg/kg, 60 min): 461 mg/dL | plasma glucose, OGTT (aged Zucker fa/fa rats [12]; week 3, ISIS 366228 25 mg/kg, 90 min): 427 mg/dL | plasma glucose, OGTT (aged Zucker fa/fa rats [12]; week 3, ISIS 366228 25 mg/kg, 120 min): 408 mg/dL
